Results on four molecules are retold here after US11613522B2, “Herbicidally active 3-phenylisoxazoline-5-carboxamides of tetrahydro- and dihydrofurancarboxamides” (BAYER AKTIENGESELLSCHAFT, priority 2017, dated 2023).

Common to all, as to format: in vivo
The test system of assay [1] is Pharbitis purpurea. Briefly: Pre-emergence herbicidal activity against PHBPU. The following applies: dosage 80 g/ha, scored visually after about 3 weeks vs untreated controls. An excerpt:
(§1) 1. Pre-emergence herbicidal action against harmful plants and crop plant compatibility Seeds of monocotyledonous and dicotyledonous weed plants and crop plants are placed in plastic or wood fiber pots and covered with soil. The compounds of the invention, formulated in the form of wettable powders (WP) or as emulsion concentrates (EC), are then applied onto the surface of the covering soil as aqueous suspension or emulsion with addition of 0.5% additive at a water application rate of 600 l/ha (converted). After the treatment, the pots are placed in a greenhouse and kept under good growth conditions for the trial plants. After about 3 weeks, the effect of the preparations is scored visually in comparison with untreated controls as percentages. For example, 100% activity=the plants have died, 0% activity=like control plants. [table]

Assay [2] has as its system Avena fatua. The assay can be described thus: Pre-emergence herbicidal activity against AVEFA. As to conditions: Avena fatua, 504 h, dosage 80 g/ha, scored visually after about 3 weeks vs untreated controls, read-out: Pre-emergence herbicidal activity in % against AVEVA (AVEFA). The method in brief: (§2)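 Seeds sown in pots and covered with soil; compounds formulated as WP or EC applied to the soil surface as aqueous suspension or emulsion with 0.5% additive at 600 l/ha water. Pots held in greenhouse; activity scored visually about 3 weeks later as % versus untreated controls (100% = dead).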

In assay [3] the test system is Abutilon theophrasti. The assay can be described thus: Post-emergence herbicidal activity against ABUTH. The following applies: Abutilon theophrasti, 504 h, dosage 320 g/ha, rated visually after about 3 weeks. The method in brief:
(§3)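 Post-emergence foliar spray of wettable-powder or emulsion-concentrate formulations (0.5% additive, 600 l/ha water) onto one-leaf-stage greenhouse plants. Percent activity scored by eye after ~3 weeks against untreated plants; 0% equals control growth, 100% equals plant death.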

For assay [4], the system named is Polygonum convolvulus. The assay can be described thus: Post-emergence herbicidal activity against POLCO. The following applies: Fallopia convolvulus, 504 h, dosage 320 g/ha, rated visually after about 3 weeks. The gist of the method:
as §3

Assay [5] relates to Setaria viridis. The assay can be described thus: Pre-emergence herbicidal activity against SETVI. The following applies: Setaria viridis, 504 h, dosage 80 g/ha, scored visually after about 3 weeks vs untreated controls. The method in brief:
as §2

In assay [6] the test system is Echinochloa crus-galli. Briefly: Post-emergence herbicidal activity against ECHCG. As to conditions: Echinochloa crus-galli, 504 h, dosage 320 g/ha, rated visually after about 3 weeks. The gist of the method: as §3
The subject of assay [7] is Viola tricolor. The assay can be described thus: Post-emergence herbicidal activity against VIOTR. As to conditions: Viola tricolor, 504 h, dosage 320 g/ha, rated visually after about 3 weeks. The gist of the method:
as §3

Assay [8] has as its system Veronica persica. Briefly: Post-emergence herbicidal activity against VERPE. As to conditions: Veronica persica, 504 h, dosage 320 g/ha, rated visually after about 3 weeks. The method in brief:
as §3

Assay [9] concerns Echinochloa crus-galli. Briefly: Pre-emergence herbicidal activity against ECHCG. As to conditions: Echinochloa crus-galli, 504 h, dosage 80 g/ha, scored visually after about 3 weeks vs untreated controls. The method in brief: as §2
Assay [10] has as its system Stellaria media. Briefly: Post-emergence herbicidal activity against STEME. The following applies: Stellaria media, 504 h, dosage 320 g/ha, rated visually after about 3 weeks. The method in brief:
as §3

Assay [11] concerns Avena fatua. The assay can be described thus: Post-emergence herbicidal activity against AVEFA. As to conditions: Avena fatua, 504 h, dosage 320 g/ha, rated visually after about 3 weeks. The method in brief: as §3
Assay [12] has as its system Setaria viridis. Briefly: Post-emergence herbicidal activity against SETVI. The following applies: Setaria viridis, 504 h, dosage 320 g/ha, rated visually after about 3 weeks. The method in brief: as §3
The subject of assay [13] is Pharbitis purpurea. The assay can be described thus: Post-emergence herbicidal activity against PHBPU. The following applies: Ipomoea purpurea, 504 h, dosage 320 g/ha, rated visually after about 3 weeks. The gist of the method: as §3
Assay [14] can be described thus: Pre-emergence herbicidal action against harmful plants (summary of the tables). As to conditions: 504 h, application rate of 0.08 kg of active substance or less per hectare, read-out: herbicidal action, pre-emergence treatment (very good activity). The method in brief: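 Seeds of weeds and crops were covered with soil, then WP or EC formulations were sprayed onto the soil surface pre-emergence at 600 l/ha water with 0.5% additive. Plants were grown in a greenhouse for about 3 weeks, and damage was scored visually as a percentage versus untreated controls (100% = plants dead).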

For assay [15], the system named is Lolium rigidum. Briefly: Post-emergence herbicidal activity against LOLRI. The following applies: Lolium rigidum, 504 h, dosage 320 g/ha, rated visually after about 3 weeks. The method in brief: as §3
Assay [16] concerns Polygonum convolvulus. The assay can be described thus: Pre-emergence herbicidal activity against POLCO. As to conditions: Fallopia convolvulus, 504 h, dosage 80 g/ha, scored visually after about 3 weeks vs untreated controls. The gist of the method:
as §2

Assay [17] deals with Hordeum murinum. The assay can be described thus: Pre-emergence herbicidal activity against HORMU. The following applies: Hordeum murinum, 504 h, dosage 80 g/ha. The gist of the method:
as §2

Assay [18] has as its system Abutilon theophrasti. Briefly: Pre-emergence herbicidal activity against ABUTH. As to conditions: dosage 80 g/ha, scored visually after about 3 weeks vs untreated controls.
Description: as §1

The subject of assay [19] is Veronica persica. Briefly: Pre-emergence herbicidal activity against VERPE. The following applies: Veronica persica, 504 h, dosage 80 g/ha. The method in brief: as §2
Assay [20] deals with Viola tricolor. The assay can be described thus: Pre-emergence herbicidal activity against VIOTR. As to conditions: Viola tricolor, 504 h, dosage 80 g/ha, scored visually after about 3 weeks vs untreated controls. The method in brief: as §2
Assay [21] deals with Amaranthus retroflexus. Briefly: Pre-emergence herbicidal activity against AMARE. The following applies: Amaranthus retroflexus, 504 h, dosage 80 g/ha, scored visually after about 3 weeks vs untreated controls. The gist of the method:
as §2

Assay [22] relates to Lolium rigidum. The assay can be described thus: Pre-emergence herbicidal activity against LOLRI. The following applies: Lolium rigidum, 504 h, dosage 80 g/ha, scored visually after about 3 weeks vs untreated controls. The gist of the method: as §2
The subject of assay [23] is Stellaria media. Briefly: Pre-emergence herbicidal activity against STEME. The following applies: Stellaria media, 504 h, dosage 80 g/ha, scored visually after about 3 weeks vs untreated controls. The method in brief:
as §2

Assay [24] deals with Alopecurus myosuroides. Briefly: Pre-emergence herbicidal activity against ALOMY. As to conditions: Alopecurus myosuroides, 504 h, dosage 80 g/ha, scored visually after about 3 weeks vs untreated controls. The method in brief: as §2
Assay [25] relates to Alopecurus myosuroides. The assay can be described thus: Post-emergence herbicidal activity against ALOMY. As to conditions: Alopecurus myosuroides, 504 h, dosage 320 g/ha, rated visually after about 3 weeks. The gist of the method: as §3
In assay [26] the test system is Hordeum murinum. The assay can be described thus: Post-emergence herbicidal activity against HORMU. The following applies: Hordeum murinum, 504 h, dosage 320 g/ha, rated visually after about 3 weeks. The gist of the method: as §3
In assay [27] the test system is Amaranthus retroflexus. Briefly: Post-emergence herbicidal activity against AMARE. The following applies: Amaranthus retroflexus, 504 h, dosage 320 g/ha, rated visually after about 3 weeks. The method in brief: as §3

Consider `C=C[C@]1(C(=O)N[C@@H]2CO[C@H](C(=O)NOC)C2)CC(c2cc(F)cc(F)c2)=NO1` (mixture of isomers) [Example I-11, (5S)-3-(3,5-difluorophenyl)-N-[cis-5-(methoxycarbamoyl)tetrahydrofuran-3-yl]-5-vinyl-4H-isoxazole-5-carboxamide], for which, in the assay with Pharbitis purpurea [1], the “Pre-emergence herbicidal activity in % against PHBPU” value stood at 90%. In addition, the pest or weed control at 80 g/ha was 100% with Avena fatua [2]; 100% in the assay on Setaria viridis [5]; 100% with Echinochloa crus-galli [9]; 80 to 100% in assay [14]; 100% with Polygonum convolvulus [16]; 90% in the assay on Hordeum murinum [17]. Moreover, the pest or weed control at 80 g/ha in the assay on Veronica persica [19] amounted to 90%; in the assay on Viola tricolor [20] it was 100%; in the assay on Amaranthus retroflexus [21] it was 100%; in the assay with Lolium rigidum [22], 100%; in the assay with Stellaria media [23], 100%; with Alopecurus myosuroides [24] it was 100%. Also, the pest or weed control at 320 g/ha with Abutilon theophrasti [3] was determined as 80%; with Polygonum convolvulus [4], 80%; with Echinochloa crus-galli [6], 90%; with Viola tricolor [7], 80%; with Veronica persica [8], 80%; in the assay on Stellaria media [10], 90%. In addition, the pest or weed control at 320 g/ha was found to be 90% with Avena fatua [11]; 90% in the assay with Setaria viridis [12]; 80% in the assay with Pharbitis purpurea [13]; 90% in the assay on Lolium rigidum [15]; 90% with Alopecurus myosuroides [25]. In the assay with Abutilon theophrasti [18], the “Pre-emergence herbicidal activity in % against ABUTH” value worked out at 100%.
For the molecule `C=C[C@]1(C(=O)N[C@@H]2CO[C@H](C(=O)NOC(C)C)C2)CC(c2cc(F)cc(F)c2)=NO1` (mixture of isomers) [Example I-13, (5S)-3-(3,5-difluorophenyl)-N-[cis-5-(isopropoxycarbamoyl)tetrahydrofuran-3-yl]-5-vinyl-4H-isoxazole-5-carboxamide], the pest or weed control at 320 g/ha in the assay with Hordeum murinum [26] is 90%; with Abutilon theophrasti [3], 80%; with Polygonum convolvulus [4], 80%; in the assay with Amaranthus retroflexus [27], 80%; in the assay with Echinochloa crus-galli [6], 90%; in the assay with Viola tricolor [7], 80%. The pest or weed control at 320 g/ha in the assay with Veronica persica [8] is 80%; in the assay with Stellaria media [10], 90%; in the assay on Avena fatua [11] it was 90%; in the assay with Setaria viridis [12], 90%; in the assay on Pharbitis purpurea [13], 80%; with Lolium rigidum [15] it was 90%. The pest or weed control at 320 g/ha in the assay on Alopecurus myosuroides [25] came out at 90%. For the same molecule, in the assay with Pharbitis purpurea [1], the “Pre-emergence herbicidal activity in % against PHBPU” value is recorded as 90%. In addition, the pest or weed control at 80 g/ha was 100% with Avena fatua [2]; 100% in the assay with Setaria viridis [5]; 100% with Echinochloa crus-galli [9]; 80 to 100% in [14]; 100% in the assay with Polygonum convolvulus [16]; 100% with Hordeum murinum [17]. For the same molecule, the pest or weed control at 80 g/ha in the assay on Veronica persica [19] is 90%; with Viola tricolor [20], 100%; in the assay on Amaranthus retroflexus [21] it was 100%; in the assay on Lolium rigidum [22], 100%; in the assay on Stellaria media [23], 100%; with Alopecurus myosuroides [24], 100%.
As for `C=C[C@]1(C(=O)N[C@@H]2CO[C@H](C(=O)NC3CC3)C2)CC(c2cc(F)cc(F)c2)=NO1` (mixture of isomers) [Example I-18, (5S)—N-[cis-5-(cyclopropylcarbamoyl)tetrahydrofuran-3-yl]-3-(3,5-difluorophenyl)-5-vinyl-4H-isoxazole-5-carboxamide], the pest or weed control at 320 g/ha amounted to 90% in the assay on Hordeum murinum [26]; 90% in the assay with Abutilon theophrasti [3]; 90% with Polygonum convolvulus [4]; 90% with Amaranthus retroflexus [27]; 90% in the assay on Echinochloa crus-galli [6]; 80% with Viola tricolor [7]. For the same molecule, the pest or weed control at 320 g/ha in the assay on Veronica persica [8] is 80%; with Stellaria media [10], 90%; with Avena fatua [11], 90%; in the assay with Setaria viridis [12] it was 90%; with Pharbitis purpurea [13], 90%; in the assay on Lolium rigidum [15], 90%. The molecule further had a pest or weed control at 320 g/ha in the assay with Alopecurus myosuroides [25] of 90%. Moreover, in the assay with Pharbitis purpurea [1], the “Pre-emergence herbicidal activity in % against PHBPU” value amounted to 90%. Also, the pest or weed control at 80 g/ha in the assay on Avena fatua [2] is 90%; in the assay on Setaria viridis [5], 100%; with Echinochloa crus-galli [9], 90%; in [14], 80 to 100%; with Polygonum convolvulus [16], 100%; in the assay on Hordeum murinum [17] it was 100%. Also, the pest or weed control at 80 g/ha with Veronica persica [19] was 90%; in the assay with Viola tricolor [20] it was 100%; in the assay on Amaranthus retroflexus [21] it was 100%; in the assay with Lolium rigidum [22], 100%; in the assay with Stellaria media [23], 100%; in the assay on Alopecurus myosuroides [24], 100%.
As to `CNC(=O)C1COCC1NC(=O)C1(C)CC(c2cc(F)cc(F)c2)=NO1` (stereo not drawn) [Example I-07, 3-(3,5-difluorophenyl)-5-methyl-N-[4-(methylcarbamoyl)tetrahydrofuran-3-yl]-4H-isoxazole-5-carboxamide], the pest or weed control at 320 g/ha in the assay with Polygonum convolvulus [4] and with Pharbitis purpurea [13] was 80% throughout. In the assay on Echinochloa crus-galli [9], this molecule showed a pest or weed control at 80 g/ha of 100%. For the same molecule, the “Pre-emergence herbicidal activity in % against ABUTH” value in the assay with Abutilon theophrasti [18] is listed as 100%.
